According to patent publication US7723063B2, “Methods for measuring levels of bioactive human hepcidin” (Intrinsic Lifesciences, priority 2004, dated 2010):
Values after ≈ are worked out from the molar mass of the structure shown. Ends that are not written are not given here. Peptide text beside a SMILES is read from it.

What was measured:
[1] = test system: HSB erythrocytes; assay: Hemolytic activity; type: cell-based, striped bass
Procedure: Hemolytic activity. Freshly packed striped bass erythrocytes (3 ml) isolated from young fingerlings (˜30 g) and adult fish (˜300 g) were washed with phosphate-buffered saline (PBS; pH 7.4) until the supernatant was colorless and resuspended in PBS (30 ml) supplemented with glucose (0.2%, w/v). Synthetic bass hepcidin (10 μl of 880-55 μM) was added to 90 μl of a 1% suspension of washed erythrocytes in microcentrifuge tubes. Triplicate samples were incubated for 30, 90, 180, and 240 min at 37° C. then centrifuged for 10 min at 3500 rpm. Supernatant from the erythrocyte suspension (70 μl) was placed in a microtiter plate and optical density at 405 nm determined. The percentage of hemolysis in hepcidin-treated erythrocytes was expressed relative to hemolysis obtained with a control erythrocyte suspension treated with 0.1% sodium dodecyl sulphate (SDS, 100% hemolysis).
Hemolytic Activity. The hemolytic activity of bass hepcidin was tested with erythrocytes from HSB. […] Greater than 98% of the bass erythrocytes exposed to 44 μM hepcidin for 3 h at 37° C. remained intact. This exposure corresponds to a time point when 96% of Y. enterocolitica exposed to 44 μM hepcidin have been killed (see FIG. 6, Panel A). After 4 h incubation with 44 μM hepcidin, more than 97% of the erythrocytes remained intact. No hemolysis was observed after 4 h at hepcidin concentrations of 11 μM and lower.

[2] = test system: spores of A. niger; assay: Germination and fungicidal assay; type: cell-based; conditions: 48 hr exposure, re-culture in fresh medium
Procedure: Germination and Fungicidal Assay. Spores of A. niger were harvested and resuspended in sterile water containing 0.05% TWEEN-80™, and the concentration adjusted to approximately 10^8 spores per ml. Spores were diluted in half-strength PDB containing 16 μM chloramphenicol to a final concentration of 10^5 spores per ml. Ninety μl of the suspension was placed in sterile flat-bottomed polystyrene 96-well plates with 10 μl of serial dilutions of peptide (440 μM, 220 μM, 110 μM, 55 μM), in water. Germination of spores was allowed to proceed for 2 days at 30° C. in the dark, after which hyphae density was measured by absorbance at 600 nm. After 2 days of incubation, the contents of wells showing no germination were centrifuged for 3 min at 5000 rpm, resuspended in 50 μl of fresh PDB media, and triplicate aliquots spotted onto PDB agar plates. Plates were placed at 30° C. for 3 days to monitor germination of hyphae. The absence of germination indicated fungicidal activity.
Fungicidal Activity. […] After 48 hr exposure to the respective peptides, spores were removed and cultured in fresh medium and examined 48 h later for growth.

[3] = Serum hepcidin after IP injection of synthetic bass hepcidin, competitive ELISA; type: in vivo; conditions: HSB
Procedure: Competition ELISA Protocol. A high-binding 96-well microplate (Corning, Inc., Cat. No. 3590) was coated with 100 μl of a 1:5,000 dilution of affinity-purified rabbit anti-HSB hepcidin antibody (0.68 mg/ml) in carbonate-bicarbonate coating buffer pH 9.6 (Sigma-Aldrich Corp., Cat. No. C-3041). One well contained 100 μl carbonate-bicarbonate coating buffer and no antibody. The plate was covered and placed at 4°C. Following a suitable period of incubation at 4° C., the plate was washed with three, 300 μl volumes of PBS-T (PBS containing 0.05% TWEEN-20™). Next, the plate was blocked with 250 μl of a 2% (w/v) dry milk solution in PBS, covered, and incubated for one hour at RT, shaking at 150 rpm. Samples and standard curves were prepared in a separate 96-well plate. Serum, plasma, and urine samples were diluted with PBS diluted to be within the working range of the standard curve. An aliquot of biotinylated AEEAc-derivatized hepcidin (0.21 mg/ml diluted 1:2000) was added to each well to give a final biotinylated hepcidin concentration of 94.5 ng/ml. From each well of the sample/standard curve dilution plate, 100 μl was transferred to the antibody coated and blocked plate. The plate was covered and incubated at RT, shaking at 150 rpm, for 1 hour to allow competitive binding to occur. […] Absorbance at 450 nm was determined using a THERMOMAX™ microplate reader with SOFTMAX PRO™ software (Molecular Devices). Data were analyzed using a spreadsheet program. […]
The data from these studies is separated by double lines. […] The second data set is from a field study Production Tank 32, where HSB without apparent clinical disease ‘Clinically Healthy’ and “Infected/Moribund” HSB were sampled and their serum hepcidin levels determined (Rows 4-5). […] The fourth experiment is a clinical where the indicated quantities of synthetic, bioactive, bass hepcidin was injected IP and measured in their serum at the indicated timepoints (Rows 8-11). […]

[4] = Direct binding to ferric iron by NMR
Text: Instead, hepcidin has shown to have the capability of exerting its effects on the innate immune response of teleosts through a combination of activities. The bass model employed in these studies provides a powerful approach to further elucidate hepcidin function(s), including it potential role in hypoferremia in teleosts.

[5] = Aggregation of bioactive hepcidin in phosphate buffered saline; type: physicochemical; conditions: pH 7.4
Text: Development of bass hepcidin enzyme/ligand conjugates for ELISA. We took advantage of the only available (N-terminal) primary amine group present in refolded bass hepcidin for conjugation to KLH using EDC (1-Ethyl-3-[3-Dimethylamino-propyl] carbodiimide HCl) and DSS (Disuccinimidyl suberate) chemistries. These approaches were very difficult to develop and apply to production of hepcidin conjugates due to hepcidin's inherent solubility issues in higher pH coupling buffers. […] We have encountered significant issues when trying to solubilize hepcidin at the higher concentrations (1-3 mg ml^−1) in standard coupling buffers desirable for production of high activity, soluble hepcidin-HRP conjugates for ELISA.

[6] = test system: Yersinia enterocolitica; assay: Microbicidal kinetics; type: cell-based
Procedure: Microbicidal Kinetics. An experiment was conducted to examine the microbicidal kinetics of bass hepcidin and to compare its killing activity to another bass antimicrobial peptide, moronecidin. Moronecidin is a 22 amino acid, linear, amphipathic α-helical peptide which was originally co-purified from the gill of HSB with hepcidin. […] We compared the killing kinetics of hepcidin and moronecidin against Y enterocolitica at 30 min intervals over a 3 h time period using 2× their MIC concentrations for this organism (44 and 10 μM; FIG. 12). The bactericidal activities of the peptides were assessed by plating cultures and counting CFUs after overnight incubation at 37° C.

[7] = test system: S. iniae
Procedure: (§1) Antimicrobial Synergism Studies. Synergism between synthetic bass hepcidin and moronecidin was tested in checkerboard liquid growth inhibition assays. In brief, two-fold serial dilutions of each peptide were made in water, and 10 μl of the solution added to the bottom of the wells of a 96-well plate. Ninety μl of exponential phase bacterial cultures (OD600˜0.2) were freshly diluted in culture media to ˜2×10^5 CFU ml^−1 and added to peptide solutions. Controls consisted of wells with the appropriate volume and concentration of each peptide alone, or of water. Bacterial viability was assayed at 2 h by plating aliquots of the bacterial suspension for CFU enumeration. The bacterial suspensions were further incubated overnight at 37° C. and bacterial growth was monitored by optical density at 600 nm for determination of MIC. Synergistic activity was quantify as fractional inhibition concentration (FIC) index=([A]/MICA)+([B]/MICB), where MICA and MICB are the MICs of the peptides alone and [A] and [B] are the MICs of A and B when used together.
(§2) To test for synergism between the two antimicrobial peptides in vitro, we conducted liquid growth inhibition/killing experiments with a Gram-positive (S. iniae) and a Gram-negative bacterium (Y enterocolitica) using varying concentrations of the two synthetic peptides. The bacteria were cultured in the presence of synthetic bass hepcidin and moronecidin and plated after 2 h incubation at 37° C. for determination of CFU (FIG. 14).

[8] = test system: E. coli
[9] = test system: Y. enterocolitica
Procedure: as §1, §2

## CSCC[C@@H]1NC(=O)[C@H](CC(N)=O)NC(=O)[C@@H]2CCCN2C(=O)[C@@H]2CSSC[C@@H]3NC(=O)[C@H](C(C)C)NC(=O)CNC(=O)[C@H](CSSC[C@@H]4NC(=O)[C@H](CSSC[C@H](NC(=O)[C@H](CC(N)=O)NC4=O)C(=O)N2)NC(=O)[C@H](Cc2ccccc2)NC(=O)[C@H](CCCNC(=N)N)NC(=O)[C@@H](NC(=O)CN)CSSC[C@@H](C(=O)N[C@@H](CCCNC(=N)N)C(=O)N[C@@H](Cc2ccccc2)C(=O)O)NC3=O)NC(=O)CNC(=O)[C@H](CO)NC1=O [bass hepcidin] (HELM PEPTIDE1{G.C.R.F.C.C.N.C.C.P.N.M.S.G.C.G.V.C.C.R.F}$PEPTIDE1,PEPTIDE1,2:R3-19:R3|PEPTIDE1,PEPTIDE1,5:R3-8:R3|PEPTIDE1,PEPTIDE1,6:R3-15:R3|PEPTIDE1,PEPTIDE1,9:R3-18:R3$$$V2.0; N-terminus and C-terminus assumed)
[1]; 5.5 μM, 30 min., 37° C.
  Hemolytic activity: 0% of controls
[1]; 5.5 μM, 90 min.
  Hemolytic activity: 0% of controls
[1]; 5.5 μM, 180 min.
  Hemolytic activity: 0% of controls
[1]; 11 μM, 30 min.
  Hemolytic activity: 0% of controls
[1]; 11 μM, 90 min.
  Hemolytic activity: 0% of controls
[1]; 11 μM, 180 min.
  Hemolytic activity: 0% of controls
[1]; 22 μM, 30 min.
  Hemolytic activity: 0% of controls
[1]; 22 μM, 90 min.
  Hemolytic activity: 0% of controls
[1]; 22 μM, 180 min.
  Hemolytic activity: 0.4 ± 0.15% of controls
[1]; 22 μM, 240 min.
  Hemolytic activity: 0.4 ± 0.4% of controls
[1]; 44 μM, 30 min.
  Hemolytic activity: 0% of controls
[1]; 44 μM, 90 min.
  Hemolytic activity: 0% of controls
[1]; 44 μM, 3 h, 37° C.
  Erythrocytes remaining intact: Greater than 98%
[1]; 44 μM, 180 min.
  Hemolytic activity: 1.4 ± 0.3% of controls
[1]; 44 μM, 4 h
  Erythrocytes remaining intact: more than 97%
[1]; 44 μM, 240 min.
  Hemolytic activity: 2.5 ± 1.2% of controls
[1]; 4 h, 11 μM and lower
  Hemolysis: No hemolysis
[2]
  Fungicidal concentration: 44 µM
[3]; 50 ug, 50 μg IP
  level at 3 h: 39.3 µg/mL
[3]; 300 ug, 300 μg IP
  level at 3 h: 204 µg/mL
[3]; 2 × 300 μg IP (0 and 3 h), sampled 6 h
  level at 6 h: 230 µg/mL
[4]
  Direct binding to ferric iron: no evidence
[5]
  Concentration at which it readily aggregates: 0.05 µg/mL
[6]; 44 μM
  Time required for 90% reduction of CFU from the original inoculum: Two and half hours
[6]; 22 and 44 μM
  State of cultures at 30 min: actually growing
[6]; Y. enterocolitica
  MIC: 22 µM (≈ 49.6 µg/mL)
[7]; 2 h incubation, concentrations as high as 88 μM
  Antimicrobial activity against S. iniae: no detectable antimicrobial activity

## FFHHIFRGIVHVGKTIHKLVTG-NH2 (C-terminus assumed) [moronecidin, reference compound]
[8]
  MIC: 5 µM
[2]
  Fungicidal concentration: 10 µM
[6]; 10 μM (2× MIC), after 30 min
  Decrease in CFU: 90%
[7]
  MIC: 2.5 µM
[9]
  MIC: 5 µM
